Laboratory results published in article PMC7385619, “A triple action CDK4/6-PI3K-BET inhibitor with augmented cancer cell cytotoxicity” (Cell Discovery, 2020).
Read-outs that look alike come from different tables or passages of the source.

What was measured:
Test in all cases: KINOMEscan assay (Eurofins DiscoverX)
Assay type in all cases: binding
kinome (kinase panel) [1] = target: T1, kinome (kinase panel) (Homo sapiens, UniProt Q6P3R8); settings: NEK5; 1000 nM; read-out: Percent Control
T1 construct: purchased Eurofins DiscoverX

kinome (kinase panel) [2] = target: T2, kinome (kinase panel) (Homo sapiens, UniProt P36888, K663Q); settings: […]; 1000 nM; read-out: Percent Control
T2 construct: purchased Eurofins DiscoverX

kinome (kinase panel) [3] = target: T3, kinome (kinase panel) (Homo sapiens, UniProt P11802); settings: 1000 nM, read-out: Percent Control
T3 construct: purchased Eurofins DiscoverX
T3 sequence (P11802 whole entry): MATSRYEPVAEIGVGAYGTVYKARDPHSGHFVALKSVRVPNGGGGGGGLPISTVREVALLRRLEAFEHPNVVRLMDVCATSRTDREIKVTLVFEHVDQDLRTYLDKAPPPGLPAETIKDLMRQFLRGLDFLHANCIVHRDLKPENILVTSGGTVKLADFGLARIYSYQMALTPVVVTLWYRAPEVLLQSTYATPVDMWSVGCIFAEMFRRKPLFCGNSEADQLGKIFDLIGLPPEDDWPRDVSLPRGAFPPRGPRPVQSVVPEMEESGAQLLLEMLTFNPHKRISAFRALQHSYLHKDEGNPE

kinome (kinase panel) [4] = target: T4, kinome (kinase panel) (Homo sapiens, UniProt Q7KZI7); settings: MARK2; 1000 nM; read-out: Percent Control
T4 construct: purchased Eurofins DiscoverX

kinome (kinase panel) [5] = target: T5, kinome (kinase panel) (Homo sapiens, UniProt P51617); settings: IRAK1; 1000 nM; read-out: Percent Control
T5 construct: purchased Eurofins DiscoverX

kinome (kinase panel) [6] = target: T6, kinome (kinase panel) (Homo sapiens, UniProt O15075); settings: DCAMKL1 (Entrez DCLK1); 1000 nM; read-out: Percent Control
T6 construct: purchased Eurofins DiscoverX

kinome (kinase panel) [7] = target: T7, kinome (kinase panel) (Homo sapiens, UniProt Q9Y2U5); settings: MAP3K2; 1000 nM; read-out: Percent Control
T7 construct: purchased Eurofins DiscoverX
T7 sequence (Q9Y2U5 whole entry): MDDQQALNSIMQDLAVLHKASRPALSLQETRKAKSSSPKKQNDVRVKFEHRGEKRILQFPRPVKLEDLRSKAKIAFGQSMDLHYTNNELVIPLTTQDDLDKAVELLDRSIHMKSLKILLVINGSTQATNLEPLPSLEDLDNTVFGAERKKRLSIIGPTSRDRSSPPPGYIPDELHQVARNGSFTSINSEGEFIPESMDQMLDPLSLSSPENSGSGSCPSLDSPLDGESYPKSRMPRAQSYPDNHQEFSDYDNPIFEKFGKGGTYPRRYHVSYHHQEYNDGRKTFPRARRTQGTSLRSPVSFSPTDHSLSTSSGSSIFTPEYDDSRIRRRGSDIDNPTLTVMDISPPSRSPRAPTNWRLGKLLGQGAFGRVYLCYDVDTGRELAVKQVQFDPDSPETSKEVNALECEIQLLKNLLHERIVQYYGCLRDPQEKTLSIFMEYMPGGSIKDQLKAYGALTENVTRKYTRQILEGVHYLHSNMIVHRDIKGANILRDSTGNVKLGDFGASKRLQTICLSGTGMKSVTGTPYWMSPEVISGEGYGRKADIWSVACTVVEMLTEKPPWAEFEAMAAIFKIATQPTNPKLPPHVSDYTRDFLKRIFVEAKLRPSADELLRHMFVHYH

kinome (kinase panel) [8] = target: T8, kinome (kinase panel) (Homo sapiens, UniProt O14965); settings: AURKA; 1000 nM; read-out: Percent Control
T8 construct: purchased Eurofins DiscoverX

kinome (kinase panel) [9] = target: T9, kinome (kinase panel) (Homo sapiens, UniProt Q8NE63); settings: HIPK4; 1000 nM; read-out: Percent Control
T9 construct: purchased Eurofins DiscoverX

kinome (kinase panel) [10] = target: T10, kinome (kinase panel) (Homo sapiens, UniProt P08581, Y1235D); settings: […]; 1000 nM; read-out: Percent Control
T10 construct: purchased Eurofins DiscoverX

kinome (kinase panel) [11] = target: T11, kinome (kinase panel) (Homo sapiens, UniProt P07949); settings: RET; 1000 nM; read-out: Percent Control
T11 construct: purchased Eurofins DiscoverX

kinome (kinase panel) [12] = target: T12, kinome (kinase panel) (Homo sapiens, UniProt O60285); settings: ARK5 (Entrez NUAK1); 1000 nM; read-out: Percent Control
T12 construct: purchased Eurofins DiscoverX

kinome (kinase panel) [13] = target: T13, kinome (kinase panel) (Homo sapiens, UniProt Q8WU08); settings: YANK1 (STK32A); 1000 nM; read-out: Percent Control
T13 construct: purchased Eurofins DiscoverX
T13 sequence (Q8WU08 whole entry): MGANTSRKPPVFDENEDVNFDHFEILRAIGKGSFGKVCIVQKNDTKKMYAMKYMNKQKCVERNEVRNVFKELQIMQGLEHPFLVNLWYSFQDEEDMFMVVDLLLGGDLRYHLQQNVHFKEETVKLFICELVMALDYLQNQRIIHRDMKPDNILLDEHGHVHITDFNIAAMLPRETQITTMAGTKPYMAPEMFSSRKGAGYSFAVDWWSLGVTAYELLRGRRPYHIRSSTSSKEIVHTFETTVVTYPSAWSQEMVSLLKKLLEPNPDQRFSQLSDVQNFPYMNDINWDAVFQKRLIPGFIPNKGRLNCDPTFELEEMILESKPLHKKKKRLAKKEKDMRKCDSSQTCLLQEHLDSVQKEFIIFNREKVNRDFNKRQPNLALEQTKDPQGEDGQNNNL

kinome (kinase panel) [14] = target: T14, kinome (kinase panel) (Homo sapiens, UniProt P51812); settings: 1000 nM, read-out: Percent Control
T14 construct: purchased Eurofins DiscoverX
T14 sequence (P51812 whole entry): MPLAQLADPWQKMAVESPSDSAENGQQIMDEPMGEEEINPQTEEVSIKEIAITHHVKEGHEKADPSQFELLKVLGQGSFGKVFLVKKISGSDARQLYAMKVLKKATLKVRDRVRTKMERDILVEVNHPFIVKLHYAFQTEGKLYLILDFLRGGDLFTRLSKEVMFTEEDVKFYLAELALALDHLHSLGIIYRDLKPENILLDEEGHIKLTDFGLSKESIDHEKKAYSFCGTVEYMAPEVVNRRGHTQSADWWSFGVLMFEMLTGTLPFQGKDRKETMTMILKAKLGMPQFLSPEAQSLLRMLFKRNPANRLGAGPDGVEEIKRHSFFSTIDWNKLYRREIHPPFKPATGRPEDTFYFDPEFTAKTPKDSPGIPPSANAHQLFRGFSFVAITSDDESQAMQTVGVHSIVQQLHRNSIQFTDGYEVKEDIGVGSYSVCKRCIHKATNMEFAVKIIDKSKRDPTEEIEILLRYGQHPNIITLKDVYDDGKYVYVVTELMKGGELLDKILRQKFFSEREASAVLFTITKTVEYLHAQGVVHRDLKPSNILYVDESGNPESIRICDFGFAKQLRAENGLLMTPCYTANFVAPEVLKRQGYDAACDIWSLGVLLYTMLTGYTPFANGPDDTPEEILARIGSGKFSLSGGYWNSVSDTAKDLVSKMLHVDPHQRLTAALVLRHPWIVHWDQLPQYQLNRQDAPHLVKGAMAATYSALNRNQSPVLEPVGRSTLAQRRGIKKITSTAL

kinome (kinase panel) [15] = target: T15, kinome (kinase panel) (Homo sapiens, UniProt P28482); settings: ERK2 (Entrez MAPK1); 1000 nM; read-out: Percent Control
T15 construct: purchased Eurofins DiscoverX
T15 sequence (P28482 whole entry): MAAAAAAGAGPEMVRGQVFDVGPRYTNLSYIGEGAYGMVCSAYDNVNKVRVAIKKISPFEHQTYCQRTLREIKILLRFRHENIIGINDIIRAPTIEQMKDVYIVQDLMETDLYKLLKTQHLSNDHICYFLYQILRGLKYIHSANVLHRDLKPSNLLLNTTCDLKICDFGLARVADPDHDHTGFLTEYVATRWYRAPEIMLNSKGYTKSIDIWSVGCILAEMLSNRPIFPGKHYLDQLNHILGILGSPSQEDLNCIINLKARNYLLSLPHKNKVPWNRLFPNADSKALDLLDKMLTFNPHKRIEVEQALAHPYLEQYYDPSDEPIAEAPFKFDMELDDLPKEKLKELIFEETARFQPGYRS

kinome (kinase panel) [16] = target: T16, kinome (kinase panel) (Homo sapiens, UniProt O75385); settings: ULK1; 1000 nM; read-out: Percent Control
T16 construct: purchased Eurofins DiscoverX

kinome (kinase panel) [17] = target: T17, kinome (kinase panel) (Homo sapiens, UniProt O00238); settings: BMPR1B; 1000 nM; read-out: Percent Control
T17 construct: purchased Eurofins DiscoverX

kinome (kinase panel) [18] = target: T18, kinome (kinase panel) (Homo sapiens, UniProt P78368); settings: CSNK1G2; 1000 nM; read-out: Percent Control
T18 construct: purchased Eurofins DiscoverX

kinome (kinase panel) [19] = target: T19, kinome (kinase panel) (Homo sapiens, UniProt Q99683); settings: ASK1 (Entrez MAP3K5); 1000 nM; read-out: Percent Control
T19 construct: purchased Eurofins DiscoverX

kinome (kinase panel) [20] = target: T20, kinome (kinase panel) (Homo sapiens, UniProt Q13705); settings: ACVR2B; 1000 nM; read-out: Percent Control
T20 construct: purchased Eurofins DiscoverX

kinome (kinase panel) [21] = target: T21, kinome (kinase panel) (Homo sapiens, UniProt Q9H4B4); settings: PLK3; 1000 nM; read-out: Percent Control
T21 construct: purchased Eurofins DiscoverX

kinome (kinase panel) [22] = target: T22, kinome (kinase panel) (Homo sapiens, UniProt Q9UKE5); settings: TNIK; 1000 nM; read-out: Percent Control
T22 construct: purchased Eurofins DiscoverX

kinome (kinase panel) [23] = target: T23, kinome (kinase panel) (Homo sapiens, UniProt Q15569); settings: TESK1; 1000 nM; read-out: Percent Control
T23 construct: purchased Eurofins DiscoverX
T23 sequence (Q15569 whole entry): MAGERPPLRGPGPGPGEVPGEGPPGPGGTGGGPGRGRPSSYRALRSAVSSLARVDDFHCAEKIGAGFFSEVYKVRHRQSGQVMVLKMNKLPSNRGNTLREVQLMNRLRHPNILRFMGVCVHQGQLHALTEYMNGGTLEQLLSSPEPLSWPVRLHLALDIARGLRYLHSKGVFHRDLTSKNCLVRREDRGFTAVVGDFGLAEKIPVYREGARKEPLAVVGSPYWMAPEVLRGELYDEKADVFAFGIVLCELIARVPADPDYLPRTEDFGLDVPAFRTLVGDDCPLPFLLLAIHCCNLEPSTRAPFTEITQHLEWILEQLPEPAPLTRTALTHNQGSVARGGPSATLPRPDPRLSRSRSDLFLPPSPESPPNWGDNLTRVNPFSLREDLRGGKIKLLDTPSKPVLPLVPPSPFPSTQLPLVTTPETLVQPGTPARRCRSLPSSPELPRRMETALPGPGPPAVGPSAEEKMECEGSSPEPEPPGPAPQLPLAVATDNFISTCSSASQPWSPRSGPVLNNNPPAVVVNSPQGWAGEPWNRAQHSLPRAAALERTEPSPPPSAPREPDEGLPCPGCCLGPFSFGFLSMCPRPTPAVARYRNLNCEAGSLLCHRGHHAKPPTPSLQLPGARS

kinome (kinase panel) [24] = target: T24, kinome (kinase panel) (Homo sapiens, UniProt Q04771); settings: ACVR1; 1000 nM; read-out: Percent Control
T24 construct: purchased Eurofins DiscoverX

kinome (kinase panel) [25] = target: T25, kinome (kinase panel) (Homo sapiens, UniProt P42345); settings: MTOR; 1000 nM; read-out: Percent Control
T25 construct: purchased Eurofins DiscoverX

kinome (kinase panel) [26] = target: T26, kinome (kinase panel) (Homo sapiens, UniProt Q16288); settings: TRKC (NTRK3); 1000 nM; read-out: Percent Control
T26 construct: purchased Eurofins DiscoverX

kinome (kinase panel) [27] = target: T27, kinome (kinase panel) (Homo sapiens, UniProt P37023); settings: ACVRL1; 1000 nM; read-out: Percent Control
T27 construct: purchased Eurofins DiscoverX
T27 sequence (P37023 22-503): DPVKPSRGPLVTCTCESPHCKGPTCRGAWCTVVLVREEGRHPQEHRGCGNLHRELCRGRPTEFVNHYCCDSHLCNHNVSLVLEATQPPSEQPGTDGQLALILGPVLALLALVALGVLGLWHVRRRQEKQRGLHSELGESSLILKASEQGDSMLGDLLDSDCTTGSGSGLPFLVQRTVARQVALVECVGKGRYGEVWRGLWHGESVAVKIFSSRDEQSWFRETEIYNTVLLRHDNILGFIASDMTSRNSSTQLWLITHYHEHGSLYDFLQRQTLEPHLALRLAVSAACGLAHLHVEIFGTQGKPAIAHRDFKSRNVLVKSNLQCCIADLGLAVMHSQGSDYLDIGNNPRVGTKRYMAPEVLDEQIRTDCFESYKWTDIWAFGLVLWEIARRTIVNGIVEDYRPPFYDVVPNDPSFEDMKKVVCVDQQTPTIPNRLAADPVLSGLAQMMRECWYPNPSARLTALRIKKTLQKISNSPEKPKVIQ

kinome (kinase panel) [28] = target: T28, kinome (kinase panel) (Homo sapiens, UniProt Q15303); settings: ERBB4; 1000 nM; read-out: Percent Control
T28 construct: purchased Eurofins DiscoverX

kinome (kinase panel) [29] = target: T29, kinome (kinase panel) (Homo sapiens, UniProt Q9Y243); settings: AKT3; 1000 nM; read-out: Percent Control
T29 construct: purchased Eurofins DiscoverX
T29 sequence (Q9Y243 whole entry): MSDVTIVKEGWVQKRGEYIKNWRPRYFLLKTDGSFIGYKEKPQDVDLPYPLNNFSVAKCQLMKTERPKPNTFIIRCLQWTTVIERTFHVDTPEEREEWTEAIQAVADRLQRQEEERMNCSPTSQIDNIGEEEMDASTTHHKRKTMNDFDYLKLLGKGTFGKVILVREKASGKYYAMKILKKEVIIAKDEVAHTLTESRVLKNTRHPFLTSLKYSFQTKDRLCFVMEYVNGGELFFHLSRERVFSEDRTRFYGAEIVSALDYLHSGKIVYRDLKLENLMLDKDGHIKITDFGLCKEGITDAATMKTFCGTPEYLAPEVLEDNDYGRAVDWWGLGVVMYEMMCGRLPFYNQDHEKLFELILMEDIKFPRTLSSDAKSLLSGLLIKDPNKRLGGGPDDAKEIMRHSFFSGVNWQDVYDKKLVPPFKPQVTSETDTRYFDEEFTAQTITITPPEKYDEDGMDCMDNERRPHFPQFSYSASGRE

kinome (kinase panel) [30] = target: T30, kinome (kinase panel) (Homo sapiens, UniProt Q9HAZ1); settings: CLK4; 1000 nM; read-out: Percent Control
T30 construct: purchased Eurofins DiscoverX

kinome (kinase panel) [31] = target: T31, kinome (kinase panel) (Homo sapiens, UniProt P30530); settings: AXL; 1000 nM; read-out: Percent Control
T31 construct: purchased Eurofins DiscoverX

kinome (kinase panel) [32] = target: T32, kinome (kinase panel) (Homo sapiens, UniProt P10721, L576P); settings: […]; 1000 nM; read-out: Percent Control
T32 construct: purchased Eurofins DiscoverX
T32 sequence (P10721 26-976 L576P): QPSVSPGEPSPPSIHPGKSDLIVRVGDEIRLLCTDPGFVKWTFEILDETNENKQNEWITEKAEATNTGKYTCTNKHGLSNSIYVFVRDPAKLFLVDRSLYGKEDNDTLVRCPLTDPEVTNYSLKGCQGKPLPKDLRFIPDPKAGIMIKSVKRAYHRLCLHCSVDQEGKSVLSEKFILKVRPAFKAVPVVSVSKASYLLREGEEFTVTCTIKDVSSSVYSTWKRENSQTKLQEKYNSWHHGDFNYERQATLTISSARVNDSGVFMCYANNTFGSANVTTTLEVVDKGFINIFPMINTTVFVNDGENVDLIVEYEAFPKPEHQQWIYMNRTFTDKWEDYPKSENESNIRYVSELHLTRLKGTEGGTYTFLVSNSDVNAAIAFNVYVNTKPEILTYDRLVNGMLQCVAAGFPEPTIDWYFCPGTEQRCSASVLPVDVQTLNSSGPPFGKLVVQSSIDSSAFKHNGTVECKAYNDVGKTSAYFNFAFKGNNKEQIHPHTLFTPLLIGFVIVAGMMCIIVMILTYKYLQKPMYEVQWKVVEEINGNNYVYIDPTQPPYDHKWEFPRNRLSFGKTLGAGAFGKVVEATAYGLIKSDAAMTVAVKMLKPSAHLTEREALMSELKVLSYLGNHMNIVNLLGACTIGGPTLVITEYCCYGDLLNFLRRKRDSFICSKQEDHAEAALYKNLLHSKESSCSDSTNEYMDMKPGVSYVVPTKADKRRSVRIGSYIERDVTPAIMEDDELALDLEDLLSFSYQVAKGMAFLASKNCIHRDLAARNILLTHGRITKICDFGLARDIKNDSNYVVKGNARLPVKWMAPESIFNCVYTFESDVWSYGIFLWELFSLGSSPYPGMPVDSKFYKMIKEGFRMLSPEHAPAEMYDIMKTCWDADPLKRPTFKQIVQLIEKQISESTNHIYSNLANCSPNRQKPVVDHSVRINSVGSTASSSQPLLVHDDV

Q: What does the source list for CN(C)C(=O)c1cc2cnc(Nc3ccc(-c4csc5c(=O)cc(N6CCOCC6)oc45)cc3)nc2n1C1CCCC1 [SRX3177]?
A: remaining binding at 1 µM (kinome (kinase panel) [1]): 93%; remaining binding at 1 µM (kinome (kinase panel) [2]): 93%; remaining binding at 1 µM (kinome (kinase panel) [3]; CDK4-cyclinD1): 0.9%; remaining binding at 1 µM (kinome (kinase panel) [3]; CDK4-cyclinD3): 1.1%; remaining binding at 1 µM (kinome (kinase panel) [3]; CDK4): 18%; remaining binding at 1 µM (kinome (kinase panel) [4]): 96%; remaining binding at 1 µM (kinome (kinase panel) [5]): 32%; remaining binding at 1 µM (kinome (kinase panel) [6]): 51%; remaining binding at 1 µM (kinome (kinase panel) [7]): 72%; remaining binding at 1 µM (kinome (kinase panel) [8]): 0%; remaining binding at 1 µM (kinome (kinase panel) [9]): 79%; remaining binding at 1 µM (kinome (kinase panel) [10]): 100%; remaining binding at 1 µM (kinome (kinase panel) [11]): 100%; remaining binding at 1 µM (kinome (kinase panel) [12]): 86%; remaining binding at 1 µM (kinome (kinase panel) [13]): 94%; remaining binding at 1 µM (kinome (kinase panel) [14]; RSK2(Kin.Dom.1-N-terminal) (RPS6KA3)): 80%; remaining binding at 1 µM (kinome (kinase panel) [14]; RSK2(Kin.Dom.2-C-terminal) (RPS6KA3)): 100%; remaining binding at 1 µM (kinome (kinase panel) [15]): 100%; remaining binding at 1 µM (kinome (kinase panel) [16]): 90%; remaining binding at 1 µM (kinome (kinase panel) [17]): 19%; remaining binding at 1 µM (kinome (kinase panel) [18]): 96%; remaining binding at 1 µM (kinome (kinase panel) [19]): 100%; remaining binding at 1 µM (kinome (kinase panel) [20]): 87%; remaining binding at 1 µM (kinome (kinase panel) [21]): 79%; remaining binding at 1 µM (kinome (kinase panel) [22]): 95%; remaining binding at 1 µM (kinome (kinase panel) [23]): 87%; remaining binding at 1 µM (kinome (kinase panel) [24]): 84%; remaining binding at 1 µM (kinome (kinase panel) [25]): 79%; remaining binding at 1 µM (kinome (kinase panel) [26]): 37%; remaining binding at 1 µM (kinome (kinase panel) [27]): 100%; remaining binding at 1 µM (kinome (kinase panel) [28]): 100%; remaining binding at 1 µM (kinome (kinase panel) [29]): 100%; remaining binding at 1 µM (kinome (kinase panel) [30]): 100%; remaining binding at 1 µM (kinome (kinase panel) [31]): 89%; remaining binding at 1 µM (kinome (kinase panel) [32]): 58%
